Laboratory results published in the supplement of paper PMC10307832.

Key:
Assay in all cases: relative viability (nuclei count vs DMSO), 5 days (fraction); higher = more cells survive
[1] = compound: CC1=CC(=CC=C1)NC2=NC(=CS2)C3=CC=NC=C3 + COc1cccc2cc(-c3nc([C@H]4CC[C@H](C(=O)O)CC4)n4ncnc(N)c34)[nH]c12 [OSI-027] (partner 0.5 µM)
Summary of the method: (§1)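 One day after seeding in 1536-well plates, lung cancer cell lines were dosed by pin tool. Dosing was either single-drug or a fixed anchor-drug dose plus five library-drug doses (not always all listed) in √10 steps. After 5 days, nuclei were stained in one fix-and-stain step and counted on 4× images, and relative viability is the nuclei count of treated wells over that of vehicle wells, given as the median of duplicate plates.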

[2] = compound: Cc1ccc(NC(=O)c2ccc(CN3CCN(C)CC3)cc2)cc1Nc1nc(-c2cccnc2)cs1 [Masitinib] + CS(=O)(=O)CCNCc1ccc(-c2ccc3ncnc(Nc4ccc(OCc5cccc(F)c5)c(Cl)c4)c3c2)o1 [Lapatinib] (partner 2 µM)
Summary of the method: as §1

[3] = compound: Cc1ccc(NC(=O)c2ccc(CN3CCN(C)CC3)cc2)cc1Nc1nc(-c2cccnc2)cs1 [Masitinib] + Cc1nc(Nc2ncc(C(=O)Nc3c(C)cccc3Cl)s2)cc(N2CCN(CCO)CC2)n1 [Dasatinib] (partner 0.075 µM)
Summary of the method: as §1

[4] = compound: CC1=CC(=CC=C1)NC2=NC(=CS2)C3=CC=NC=C3 + CS(=O)(=O)N1CCN(Cc2cc3nc(-c4cccc5[nH]ncc45)nc(N4CCOCC4)c3s2)CC1 [Pictilisib] (partner 1 µM)
Summary of the method: as §1

Cell Line | relative viability ([1]; first compound 0.08 µM) | relative viability ([1]; first compound 0.253 µM) | relative viability ([1]; first compound 0.8 µM) | relative viability ([1]; first compound 2.53 µM) | relative viability ([1]; first compound 8 µM) | relative viability ([2]; first compound 0.01 µM) | relative viability ([2]; first compound 0.03162 µM) | relative viability ([2]; first compound 0.1 µM) | relative viability ([2]; first compound 0.3162 µM) | relative viability ([2]; first compound 1 µM) | relative viability ([3]; first compound 0.01 µM) | relative viability ([3]; first compound 0.03162 µM) | relative viability ([3]; first compound 0.1 µM) | relative viability ([3]; first compound 0.3162 µM) | relative viability ([3]; first compound 1 µM) | relative viability ([4]; first compound 0.08 µM) | relative viability ([4]; first compound 0.253 µM) | relative viability ([4]; first compound 0.8 µM) | relative viability ([4]; first compound 2.53 µM) | relative viability ([4]; first compound 8 µM)
NCI-H1651 | 0.71 | 0.649 | 0.77 | 0.75 | 0.737 | 0.831 | 0.849 | 0.829 | 0.908 | 0.854 | 0.403 | 0.469 | 0.443 | 0.383 | 0.419 | 0.476 | 0.651 | 0.749 | 0.465 | 0.588
BEN | 0.304 | 0.281 | 0.295 | 0.304 | 0.322 | 0.774 | 0.675 | 0.928 | 0.54 | 0.65 | 0.341 |  | 0.271 | 0.308 | 0.281 | 0.543 | 0.528 | 0.585 | 0.446 | 0.543
EMC-BAC-2 | 0.356 | 0.383 | 0.385 | 0.375 | 0.378 | 0.793 | 0.911 | 0.837 | 0.9 | 0.966 | 0.35 | 0.33 | 0.397 | 0.314 | 0.296 | 0.449 | 0.496 | 0.53 | 0.48 | 0.554
LXF-289 | 0.794 | 0.786 | 0.753 | 0.729 | 0.838 | 0.757 | 0.879 | 0.938 | 0.929 | 0.894 | 0.223 | 0.206 | 0.238 | 0.202 | 0.207 | 0.714 | 0.75 | 0.733 | 0.715 | 0.74
ABC-1 | 0.369 | 0.427 | 0.493 | 0.421 | 0.319 | 1.54 | 1.15 | 1.21 | 1.37 | 1.16 | 0.58 | 0.588 | 0.629 | 0.428 | 0.521 | 0.48 | 0.665 | 0.686 | 0.634 | 0.486
NCI-H358 | 0.674 | 0.821 | 0.715 | 0.82 | 0.728 | 0.465 | 0.479 | 0.492 | 0.494 | 0.421 | 0.155 | 0.158 | 0.166 | 0.161 | 0.133 | 0.289 | 0.345 | 0.307 | 0.381 | 0.38
NCI-H1355 | 0.262 | 0.323 | 0.291 | 0.343 | 0.383 | 0.691 | 0.94 | 0.807 | 0.781 | 0.951 | 0.69 | 0.485 | 0.701 | 0.436 | 0.69 | 0.268 | 0.315 | 0.348 | 0.292 | 0.327
EBC-1 |  |  |  |  |  | 0.191 | 0.235 | 0.197 | 0.196 | 0.21 |  |  |  |  |  | 0.187 | 0.216 | 0.236 | 0.303 | 0.211
NCI-H2405 | 0.564 | 0.636 | 0.531 | 0.702 | 0.671 | 0.921 | 1.09 | 0.953 | 0.946 | 0.952 | 0.2 | 0.214 | 0.213 | 0.238 | 0.193 | 0.315 | 0.433 | 0.332 | 0.523 | 0.342
